From US20070190539A1, “Human MLR single nucleotide polymorphisms associated with dose-dependent congestive heart failure and methods of use thereof” (Bristol-Myers Squibb Company, priority 2005, published 2007)

Experiment: Phase II clinical trials CV168-006 and CV168-008: diagnosis of congestive heart failure in patients treated with compound A
Type: in vivo, human
Experimental: Genomic DNA samples from patients enrolled in two Bristol-Myers Squibb Company Phase II clinical trials CV168-006 and CV168-008 trials were genotyped for 1 SNP identified in the human mineralocorticoid receptor gene (see Example 1) and evaluated for association with congestive heart failure.
498 subjects enrolled in the CV168-006 trial and 232 subjects from the CV168-008 trial were analyzed in this study. All analyses were based on data collected up to 24 weeks, which was the duration of the short-term phase of the trials. DNA was extracted from frozen blood by a third-party (Genaissance Inc, North Carolina) using a salting-out method (Gentra Systems). All subjects gave written informed consent.
(§1) At the time of this analysis four individuals were diagnosed as having developed congestive heart failure. All four were in the CV168-006 trial; three were being treated with 10 mg of compound A and one with 20 mg of compound A. All SNPs that were analyzed above were also tested for association with CHF using contingency tables.
Sample. Investigators in the BMS clinical trials diagnosed dose-dependent congestive heart failure in some subjects.
Genomic DNA samples from patients enrolled in two Bristol-Myers Squibb Company Phase II clinical trials CV168-006 and CV168-008 trials were genotyped for 1 SNP identified in the human PPAR-gamma gene (see Example 7) and evaluated for association with congestive heart failure.
as §1, with “CV 168-006” for “CV168-006”
Genomic DNA samples from patients enrolled in two Bristol-Myers Squibb Company Phase II clinical trials CV168-006 and CV168-008 trials were genotyped for 1 SNP identified in the human Adiponectin gene (see Example 13) and evaluated for association with congestive heart failure.

SMILES: COc1ccc(OC(=O)N(CC(=O)O)Cc2ccc(OCCc3nc(-c4ccccc4)oc3C)cc2)cc1 [compound A, N-[(4-methoxyphenoxy)carbonyl]-N-[[4-[2-(5-methyl-2-phenyl-4-oxazolyl)ethoxy]phenyl]methyl]glycine]
- individuals who developed congestive heart failure while treated with 10 mg (CV168-006 trial, 10 mg of compound A, data up to 24 weeks): three
- individuals who developed congestive heart failure while treated with 20 mg (CV168-006 trial, 20 mg of compound A, data up to 24 weeks): one
- dose dependence of congestive heart failure (CHF) (Phase II trials, patients, high doses = 10 and 20 mg arms): observed only at high doses
- individuals diagnosed as having developed congestive heart failure (all subjects analysed (498 in CV168-006, 232 in CV168-008), data up to 24 weeks, all four cases in the CV168-006 trial): four
